In ChEMBL document CHEMBL1201862, “PubChem BioAssay data set” (2004) one finds IC50 data, which are given here for two compounds.

The structures appear in SMILES notation. Calls of active or inactive are those of the source. Cut-off read from the data, not from the text of the source: actives have a measured IC50 and inactives only a lower limit.

In this assay the target is Envelope glycoprotein gp160 (Human immunodeficiency virus 1, UniProt Q6QLK5). The assay is described as follows: inhibitors of HIV fusion peptide binding, primary screen, biochemical, uHTS, fluorescence dequenching (AID 1986).
Sequence of Envelope glycoprotein gp160 (Q6QLK5 whole entry, the tested form may be a part): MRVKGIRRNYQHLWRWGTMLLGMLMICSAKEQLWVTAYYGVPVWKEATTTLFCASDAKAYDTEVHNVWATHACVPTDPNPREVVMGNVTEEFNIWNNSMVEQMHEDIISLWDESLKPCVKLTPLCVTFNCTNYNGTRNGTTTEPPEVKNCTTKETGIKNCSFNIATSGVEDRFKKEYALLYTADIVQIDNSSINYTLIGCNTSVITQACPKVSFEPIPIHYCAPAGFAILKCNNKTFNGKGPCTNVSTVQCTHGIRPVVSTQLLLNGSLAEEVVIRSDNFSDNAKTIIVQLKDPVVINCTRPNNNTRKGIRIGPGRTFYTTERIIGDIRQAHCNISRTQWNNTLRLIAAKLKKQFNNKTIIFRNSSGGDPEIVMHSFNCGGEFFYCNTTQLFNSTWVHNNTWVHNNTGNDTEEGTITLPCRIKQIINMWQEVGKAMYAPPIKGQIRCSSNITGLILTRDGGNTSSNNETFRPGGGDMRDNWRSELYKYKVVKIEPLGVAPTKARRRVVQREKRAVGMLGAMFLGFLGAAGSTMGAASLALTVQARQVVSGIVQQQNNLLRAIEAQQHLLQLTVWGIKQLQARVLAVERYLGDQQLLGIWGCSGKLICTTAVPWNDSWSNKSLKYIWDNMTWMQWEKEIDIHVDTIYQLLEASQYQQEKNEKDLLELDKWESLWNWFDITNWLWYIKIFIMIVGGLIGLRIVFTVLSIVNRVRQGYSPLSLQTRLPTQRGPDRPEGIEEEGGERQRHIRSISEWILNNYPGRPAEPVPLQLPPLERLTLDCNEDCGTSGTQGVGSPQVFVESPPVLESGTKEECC

Usually IC50 stands for the concentration needed to halve the response being measured. In the case of `CCCCN1C(=O)/C(=C/C=C/c2ccco2)C(=O)NC1=S`, the 50% inhibitory concentration (IC50) is 5.14 µM (active).
The figure for `CC(/C=C1\SC(=S)N(CCCC(=O)Nc2ccc(C(=O)O)cc2)C1=O)=C\c1ccccc1` is 17.2 µM (active).
